Measurements published in paper PMC5218480 (PLoS ONE, 2017).

Test system: MV-4-11 cells
Assay: Gene expression microarray analysis (Affymetrix PrimeView) and GSEA
Type: cell-based, human
Set-up: RFU PODN (11730768_x_at) / Fold change /veh PODN (11730768_x_at) / RFU LINC00158 (11744669_a_at) / Fold change /veh LINC00158 (11744669_a_at) / RFU DUSP10 (11751237_a_at) / Fold change /veh DUSP10 (11751237_a_at) / RFU ID3 (11757404_x_at) / Fold change /veh ID3 (11757404_x_at) / RFU PLEKHG5 (11737974_s_at) / Fold change /veh PLEKHG5 (11737974_s_at) / RFU LRRC4B (11730491_at) / Fold change /veh LRRC4B (11730491_at) / RFU GIMAP4 (11747438_a_at) / Fold change /veh GIMAP4 (11747438_a_at) / RFU KRT8 (11758183_x_at) / Fold change /veh KRT8 (11758183_x_at) / RFU CNN1 (11734310_a_at) / Fold change /veh CNN1 (11734310_a_at) / RFU VPS37D (11726825_at) / Fold change /veh VPS37D (11726825_at) / RFU C10orf10 (11716522_x_at) / Fold change /veh C10orf10 (11716522_x_at) / RFU KIR2DL2 /// KIR2DL4 /// KIR2DL5A /// KIR2DL5B /// KIR2DS1 /// KIR2DS2 /// KIR2DS3 /// KIR2DS4 /// KIR3DL3 /// KIR3DL3 /// KIR3DS1 (11738374_at) / Fold change /veh KIR2DL2 /// KIR2DL4 /// KIR2DL5A /// KIR2DL5B /// KIR2DS1 /// KIR2DS2 /// KIR2DS3 /// KIR2DS4 /// KIR3DL3 /// KIR3DL3 /// KIR3DS1 (11738374_at) / RFU C1QL1 (11718748_at) / Fold change /veh C1QL1 (11718748_at) / RFU TMPRSS4 (11747572_a_at) / Fold change /veh TMPRSS4 (11747572_a_at) / RFU HAMP (11756126_x_at) / Fold change /veh HAMP (11756126_x_at) / RFU RNFT2 (11725882_a_at) / Fold change /veh RNFT2 (11725882_a_at) / RFU NR4A2 (11747474_a_at) / Fold change /veh NR4A2 (11747474_a_at) / RFU ABCC12 (11746883_a_at) / Fold change /veh ABCC12 (11746883_a_at) / RFU TMEM136 (11760407_x_at) / Fold change /veh TMEM136 (11760407_x_at) / RFU CLDN22 /// WWC2 (11732394_at) / Fold change /veh CLDN22 /// WWC2 (11732394_at) / RFU HLA-DPB1 (11760878_x_at) / Fold change /veh HLA-DPB1 (11760878_x_at) / RFU SPINT1 (11716480_a_at) / Fold change /veh SPINT1 (11716480_a_at) / RFU GAP43 (11754022_s_at) / Fold change /veh GAP43 (11754022_s_at) / RFU A4GNT (11735810_at) / Fold change /veh A4GNT (11735810_at) / RFU PRB3 (11715151_x_at) / Fold change /veh PRB3 (11715151_x_at) / RFU TUBB4B (11761932_at) / Fold change /veh TUBB4B (11761932_at) / RFU CAPN14 (11732068_a_at) / Fold change /veh CAPN14 (11732068_a_at) / RFU TMCC2 (11721928_a_at) / Fold change /veh TMCC2 (11721928_a_at) / RFU IRGQ (11745062_a_at) / Fold change /veh IRGQ (11745062_a_at) / RFU FAM174B (11720279_a_at) / Fold change /veh FAM174B (11720279_a_at) / RFU TMPRSS4 (11748680_a_at) / Fold change /veh TMPRSS4 (11748680_a_at) / RFU FAM212B (11763350_a_at) / Fold change /veh FAM212B (11763350_a_at) / RFU PLEKHG5 (11743358_a_at) / Fold change /veh PLEKHG5 (11743358_a_at) / RFU ZSCAN30 (11745921_a_at) / Fold change /veh ZSCAN30 (11745921_a_at) / RFU CMKLR1 (11741424_a_at) / Fold change /veh CMKLR1 (11741424_a_at) / RFU LOC101060620 /// MAPK8IP1 (11723275_at) / Fold change /veh LOC101060620 /// MAPK8IP1 (11723275_at) / RFU SPTSSB (11747773_x_at) / Fold change /veh SPTSSB (11747773_x_at) / RFU PRSS12 (11739890_at) / Fold change /veh PRSS12 (11739890_at) / RFU BIN1 (11741810_x_at) / Fold change /veh BIN1 (11741810_x_at) / RFU WNT11 (11732464_a_at) / Fold change /veh WNT11 (11732464_a_at) / RFU C10orf10 (11716521_a_at) / Fold change /veh C10orf10 (11716521_a_at) / RFU C5orf56 (11738089_at) / Fold change /veh C5orf56 (11738089_at) / RFU CYB561 (11721691_x_at) / Fold change /veh CYB561 (11721691_x_at) / RFU ANKRD19P (11752326_a_at) / Fold change /veh ANKRD19P (11752326_a_at) / RFU OR2T12 /// OR2T33 /// OR2T8 (11738714_s_at) / Fold change /veh OR2T12 /// OR2T33 /// OR2T8 (11738714_s_at) / RFU VCAN (11748164_a_at) / Fold change /veh VCAN (11748164_a_at) / RFU JSRP1 (11732532_at) / Fold change /veh JSRP1 (11732532_at) / RFU KRTAP10-11 (11738290_x_at) / Fold change /veh KRTAP10-11 (11738290_x_at) / RFU MYO3A (11730013_a_at) / Fold change /veh MYO3A (11730013_a_at) / RFU EBF3 (11725865_a_at) / Fold change /veh EBF3 (11725865_a_at) / RFU CAMK2N1 (11719241_x_at) / Fold change /veh CAMK2N1 (11719241_x_at) / RFU C5orf56 (11738088_a_at) / Fold change /veh C5orf56 (11738088_a_at) / RFU OLFML3 (11715873_a_at) / Fold change /veh OLFML3 (11715873_a_at) / RFU LOC100653217 /// NTM (11731650_a_at) / Fold change /veh LOC100653217 /// NTM (11731650_a_at) / RFU MAPK11 (11762145_a_at) / Fold change /veh MAPK11 (11762145_a_at) / RFU FIZ1 (11724087_x_at) / Fold change /veh FIZ1 (11724087_x_at) / RFU OASL (11726364_x_at) / Fold change /veh OASL (11726364_x_at) / RFU SOX15 (11748057_x_at) / Fold change /veh SOX15 (11748057_x_at) / RFU CD79A (11719716_a_at) / Fold change /veh CD79A (11719716_a_at) / RFU HIST1H1D (11736915_at) / Fold change /veh HIST1H1D (11736915_at) / RFU CASKIN2 (11723855_a_at) / Fold change /veh CASKIN2 (11723855_a_at) / RFU LOC730098 (11760151_x_at) / Fold change /veh LOC730098 (11760151_x_at) / RFU OR4N2 (11742367_at) / Fold change /veh OR4N2 (11742367_at) / RFU PRRT2 (11749266_a_at) / Fold change /veh PRRT2 (11749266_a_at) / RFU SNX32 (11753110_a_at) / Fold change /veh SNX32 (11753110_a_at) / RFU CDHR5 (11726645_a_at) / Fold change /veh CDHR5 (11726645_a_at) / RFU RCAN1 (11760418_a_at) / Fold change /veh RCAN1 (11760418_a_at) / RFU FAM167A (11723789_a_at) / Fold change /veh FAM167A (11723789_a_at) / RFU FAM26E (11764081_at) / Fold change /veh FAM26E (11764081_at) / RFU ISYNA1 (11749810_s_at) / Fold change /veh ISYNA1 (11749810_s_at) / RFU ACY1 (11761880_at) / Fold change /veh ACY1 (11761880_at) / RFU 11764098_at / Fold change /veh 11764098_at / RFU SAMD14 (11745864_x_at) / Fold change /veh SAMD14 (11745864_x_at) / RFU NPB (11741838_a_at) / Fold change /veh NPB (11741838_a_at) / RFU TMPRSS6 (11731388_a_at) / Fold change /veh TMPRSS6 (11731388_a_at) / RFU KRTAP10-2 (11738614_at) / Fold change /veh KRTAP10-2 (11738614_at) / RFU ARHGAP8 /// PRR5-ARHGAP8 (11727945_x_at) / Fold change /veh ARHGAP8 /// PRR5-ARHGAP8 (11727945_x_at) / RFU KRTAP5-7 /// NADSYN1 (11734609_at) / Fold change /veh KRTAP5-7 /// NADSYN1 (11734609_at) / RFU RASL12 (11751679_a_at) / Fold change /veh RASL12 (11751679_a_at) / RFU CDKN2B (11736163_a_at) / Fold change /veh CDKN2B (11736163_a_at) / RFU PRF1 (11729649_at) / Fold change /veh PRF1 (11729649_at) / RFU, ZNF638 /// ZNF638-IT1 / Fold change vs veh, ZNF638 /// ZNF638-IT1 / RFU, PANK3 / Fold change vs veh, PANK3 / RFU, SH3YL1 / Fold change vs veh, SH3YL1 / RFU, ZEB2 / Fold change vs veh, ZEB2 / RFU, NRIP1 / Fold change vs veh, NRIP1 / RFU, PTTG1IP / Fold change vs veh, PTTG1IP / RFU, CAPN2 / Fold change vs veh, CAPN2 / RFU, MED14 / Fold change vs veh, MED14 / RFU, SNORA58 / Fold change vs veh, SNORA58 / RFU, C1orf63 / Fold change vs veh, C1orf63 / RFU, LRRFIP1 / Fold change vs veh, LRRFIP1 / RFU, NDUFAF7 / Fold change vs veh, NDUFAF7 / RFU, SLC12A2 / Fold change vs veh, SLC12A2 / RFU, IBTK / Fold change vs veh, IBTK / RFU, ESF1 / Fold change vs veh, ESF1 / Fold change vs veh, TMEM50B / RFU, TAOK1 / Fold change vs veh, TAOK1 / RFU, ACBD3 / Fold change vs veh, ACBD3 / RFU, TMA16 / Fold change vs veh, TMA16 / RFU, RWDD3 / Fold change vs veh, RWDD3 / RFU, BCAT1 / Fold change vs veh, BCAT1 / RFU, EDEM3 / Fold change vs veh, EDEM3 / RFU, TMEM33 / Fold change vs veh, TMEM33 / RFU, WDR75 / Fold change vs veh, WDR75 / RFU, AHCTF1 / Fold change vs veh, AHCTF1 / RFU, TFRC / Fold change vs veh, TFRC / RFU, ZDHHC17 / Fold change vs veh, ZDHHC17 / RFU, NOM1 / Fold change vs veh, NOM1 / RFU, ARL8B / Fold change vs veh, ARL8B / RFU, ZBTB11 / Fold change vs veh, ZBTB11 / RFU, TAMM41 / Fold change vs veh, TAMM41 / RFU, KIAA1704 /// LOC100996395 / Fold change vs veh, KIAA1704 /// LOC100996395 / RFU, ING1 / Fold change vs veh, ING1 / RFU, TRMT61B / Fold change vs veh, TRMT61B / RFU, FUBP3 / Fold change vs veh, FUBP3 / RFU, TP53 / Fold change vs veh, TP53 / RFU, TNKS2 / Fold change vs veh, TNKS2 / RFU, ZFP14 / Fold change vs veh, ZFP14 / RFU, ACTR2 / Fold change vs veh, ACTR2 / RFU, PPP3R1 / Fold change vs veh, PPP3R1 / RFU, PIK3R1 / Fold change vs veh, PIK3R1 / RFU, HNRNPA1 / Fold change vs veh, HNRNPA1 / RFU, RNF170 / Fold change vs veh, RNF170 / RFU, ZNF28 / Fold change vs veh, ZNF28 / RFU, RNGTT / Fold change vs veh, RNGTT / RFU, OGT / Fold change vs veh, OGT / RFU, BRD1 / Fold change vs veh, BRD1 / RFU, MARS / Fold change vs veh, MARS / RFU, ZNF655 / Fold change vs veh, ZNF655 / RFU, FAHD1 / Fold change vs veh, FAHD1 / RFU, BDP1 / Fold change vs veh, BDP1 / RFU, LRRCC1 / Fold change vs veh, LRRCC1 / RFU, ARID1A / Fold change vs veh, ARID1A / RFU, ZNF146 / Fold change vs veh, ZNF146 / RFU, ZNF330 / Fold change vs veh, ZNF330 / RFU, GPN3 / Fold change vs veh, GPN3 / RFU, C9orf123 / Fold change vs veh, C9orf123 / RFU, N4BP2L2 / Fold change vs veh, N4BP2L2 / RFU, ARFIP1 / Fold change vs veh, ARFIP1 / RFU, FAM179B / Fold change vs veh, FAM179B / RFU, BCL10 / Fold change vs veh, BCL10 / RFU, UHRF1BP1L / Fold change vs veh, UHRF1BP1L / RFU, BET1 / Fold change vs veh, BET1 / RFU, CNOT2 / Fold change vs veh, CNOT2 / RFU, ZNF268 / Fold change vs veh, ZNF268 / Fold change vs veh, ZNF507 / RFU, DGCR2 / Fold change vs veh, DGCR2 / RFU, WDSUB1 / Fold change vs veh, WDSUB1 / Fold change vs veh, HSP90B1 /// MIR3652 / RFU, ADSS / Fold change vs veh, ADSS / RFU, GK / Fold change vs veh, GK / RFU, ZNF148 / Fold change vs veh, ZNF148 / RFU, TAF9 / Fold change vs veh, TAF9 / RFU, SLC1A5 / Fold change vs veh, SLC1A5 / RFU, SLMO2 / Fold change vs veh, SLMO2 / RFU, ABCC4 / Fold change vs veh, ABCC4 / RFU, LOC101060439 /// RAP1B / Fold change vs veh, LOC101060439 /// RAP1B / RFU, RFX7 / Fold change vs veh, RFX7 / RFU, GTPBP10 / Fold change vs veh, GTPBP10 / RFU, CNEP1R1 / Fold change vs veh, CNEP1R1 / RFU, BIVM-ERCC5 /// ERCC5 / Fold change vs veh, BIVM-ERCC5 /// ERCC5 / RFU, ILF3 / Fold change vs veh, ILF3 / RFU 11762660_at / Fold change /veh 11762660_at / RFU VCAN (11757783_s_at) / Fold change /veh VCAN (11757783_s_at) / RFU DDX43 (11728927_at) / Fold change /veh DDX43 (11728927_at) / RFU KRT8 (11758188_x_at) / Fold change /veh KRT8 (11758188_x_at) / RFU NKD1 (11759106_at) / Fold change /veh NKD1 (11759106_at) / RFU SRD5A1 (11742802_a_at) / Fold change /veh SRD5A1 (11742802_a_at) / RFU TPSAB1 /// TPSB2 (11721975_s_at) / Fold change /veh TPSAB1 /// TPSB2 (11721975_s_at) / RFU GSTM3 (11746129_a_at) / Fold change /veh GSTM3 (11746129_a_at) / RFU IL23R (11737362_x_at) / Fold change /veh IL23R (11737362_x_at) / RFU TMEM51 (11727254_a_at) / Fold change /veh TMEM51 (11727254_a_at) / RFU PIWIL2 (11732686_x_at) / Fold change /veh PIWIL2 (11732686_x_at) / RFU ORM1 (11744905_x_at) / Fold change /veh ORM1 (11744905_x_at) / RFU CCDC152 (11743942_at) / Fold change /veh CCDC152 (11743942_at) / RFU ECM1 (11717891_a_at) / Fold change /veh ECM1 (11717891_a_at) / RFU IL23R (11748794_a_at) / Fold change /veh IL23R (11748794_a_at) / RFU TNFAIP8L3 (11732012_x_at) / Fold change /veh TNFAIP8L3 (11732012_x_at) / RFU MBOAT4 (11741988_at) / Fold change /veh MBOAT4 (11741988_at) / RFU 11764193_at / Fold change /veh 11764193_at / RFU TMEM53 (11763286_at) / Fold change /veh TMEM53 (11763286_at) / RFU MAGEB2 (11727129_at) / Fold change /veh MAGEB2 (11727129_at) / RFU TMEM200A (11744735_a_at) / Fold change /veh TMEM200A (11744735_a_at) / RFU CCDC152 (11751479_a_at) / Fold change /veh CCDC152 (11751479_a_at) / RFU FAM211A (11726209_a_at) / Fold change /veh FAM211A (11726209_a_at) / RFU RGS16 (11746705_a_at) / Fold change /veh RGS16 (11746705_a_at) / RFU VCAN (11755009_s_at) / Fold change /veh VCAN (11755009_s_at) / RFU RHOB (11743442_s_at) / Fold change /veh RHOB (11743442_s_at) / RFU RGS16 (11720943_a_at) / Fold change /veh RGS16 (11720943_a_at) / RFU RGS16 (11720944_at) / Fold change /veh RGS16 (11720944_at) / RFU, VPS4B / Fold change vs veh, VPS4B / RFU, CREB1 / Fold change vs veh, CREB1 / RFU, DNAJC13 / Fold change vs veh, DNAJC13 / RFU, GNAQ / Fold change vs veh, GNAQ / RFU, CDK5R1 / Fold change vs veh, CDK5R1 / RFU, ZRANB3 / Fold change vs veh, ZRANB3 / RFU, CUL4A / Fold change vs veh, CUL4A / RFU, CCNY / Fold change vs veh, CCNY / RFU, UFL1 / Fold change vs veh, UFL1 / RFU, COG3 / Fold change vs veh, COG3 / RFU, DIAPH2 / Fold change vs veh, DIAPH2 / RFU, SKA2 / Fold change vs veh, SKA2 / RFU, AFF3 / Fold change vs veh, AFF3 / RFU, LMF1 / Fold change vs veh, LMF1 / RFU, IPO11 / Fold change vs veh, IPO11 / RFU, DFFB / Fold change vs veh, DFFB / RFU, FOXP1 / Fold change vs veh, FOXP1 / RFU, CARD8 / Fold change vs veh, CARD8 / RFU, STRN3 / Fold change vs veh, STRN3 / RFU, ADK / Fold change vs veh, ADK / RFU, RASSF2 / Fold change vs veh, RASSF2 / RFU, WIPF1 / Fold change vs veh, WIPF1 / RFU, LARP1B / Fold change vs veh, LARP1B / RFU, RASA1 / Fold change vs veh, RASA1 / RFU, RB1 / Fold change vs veh, RB1 / RFU, PPFIA1 / Fold change vs veh, PPFIA1 / RFU, MAT2A / Fold change vs veh, MAT2A / RFU, CCT5 / Fold change vs veh, CCT5 / RFU, WDR92 / Fold change vs veh, WDR92 / RFU, CUX1 / Fold change vs veh, CUX1 / RFU, TTC7A / Fold change vs veh, TTC7A / RFU, TMEM135 / Fold change vs veh, TMEM135 / RFU, DEPTOR / Fold change vs veh, DEPTOR / RFU, CPM / Fold change vs veh, CPM / RFU, DNAJB6 / Fold change vs veh, DNAJB6 / RFU, CACNA2D3 / Fold change vs veh, CACNA2D3 / RFU, DTX4 / Fold change vs veh, DTX4 / RFU, TFCP2 / Fold change vs veh, TFCP2 / RFU, GMCL1 /// GMCL1P1 / Fold change vs veh, GMCL1 /// GMCL1P1 / RFU, AEBP2 / Fold change vs veh, AEBP2 / RFU, SNHG1 /// SNORD22 /// SNORD25 /// SNORD26 /// SNORD27 /// SNORD28 /// SNORD29 /// SNORD31 / Fold change vs veh, SNHG1 /// SNORD22 /// SNORD25 /// SNORD26 /// SNORD27 /// SNORD28 /// SNORD29 /// SNORD31 / Fold change (Aza/veh), C12orf56 (ProbeSet 11735607_a_at) / Fold change (ACY-1035/veh), C12orf56 (ProbeSet 11735607_a_at) / Fold change (Aza/veh), FGFR1OP (ProbeSet 11751329_s_at) / Fold change (ACY-1035/veh), FGFR1OP (ProbeSet 11751329_s_at) / Fold change (Aza/veh), VPS36 (ProbeSet 11739960_a_at) / Fold change (ACY-1035/veh), VPS36 (ProbeSet 11739960_a_at) / RFU SYPL1 (11715823_x_at) / Fold change /veh SYPL1 (11715823_x_at) / RFU IGFBP7 (11715501_s_at) / Fold change /veh IGFBP7 (11715501_s_at) / RFU REEP3 (11722064_at) / Fold change /veh REEP3 (11722064_at) / RFU IGLL1 (11728026_x_at) / Fold change /veh IGLL1 (11728026_x_at): dose or concentration left out as unconfirmed
Conditions: MV-4-11 cells, 48 hours

Nc1ccc(-c2cccs2)cc1NC(=O)c1ccc2c(c1)cc(C1CC1)n2CCN1CCOCC1 [ACY-1035]
Fold change /veh CNN1 (11734310_a_at): 1.19
